We go through six molecules from patent publication US9790207B2, “Pan-genomic inhibitors of NS5A protein encoded by HCV, pharmaceutical compositions, intermediates for inhibitor synthesis, and their synthesis and application methods” (priority 2015, dated 2017).

The test system of one series is HCV gT3a replicon. The series is described as follows: HCV replicon assay, gT3a. Type of series: cell-based, Hepatitis C virus (HCV). Conditions: mean, read-out: gT3a, EC50 (pM) mean. The protocol: (§1) The HCV replicon assay was used to determine the antiviral activity of compounds of general formula 2 (test compounds). The test cell line used in the HCV Replicon Assay was the human hepatoma cell line Huh7 incorporating the HCV replicons synthesized by an outside vendor.
(§2) 96-well plates were seeded with cells at a density of 7.5×10^3 cells per well in 50 μl of assay media. The compound stock solution was made up freshly in an assay medium (DMEM 1×, Cellgro; cat. #10-013-CV) as a 2× stock. A total of 11 serial 3-fold dilutions of test compounds were prepared from the 2× stock in the assay media ranging from 20 nM-0.2 pM final concentrations. At least 4 hours after seeding the cells, compound treatment was initiated by adding 50 μl of compound dilution to the plates. The final concentrations of compound therefore ranged from 10 nM to 0.1 pM when diluted 1:1 in culture media. The final DMSO concentration was 0.5%. Cells and inhibitors were incubated for 3 days at 37° C./5% CO2. The media was removed from the plates by gentle tapping. The cells were fixed with 100 μl 1:1 acetone:methanol for 1 minute, washed three times with PBS buffer, and then blocked with 150 μl/well 10% Fetal Bovine Serum (FBS) in PBS for 1 hour at room temperature. The cells were then washed three times with PBS buffer and incubated with 100 μl/well anti-hepatitis C core mAb (Affinity BioReagents; cat. # MA1-080, 1 mg/ml stock diluted 1:4,000 in 10% FBS-PBS) for 2 hours at 37° C. Then, the cells were washed three times with PBS and incubated with 100 μl/well HRP-Goat Anti-Mouse antibody (diluted 1:3.500 in 10% FBS-PBS) for 1 hour at 37° C. The cells were then washed three times with PBS and developed with an OPD solution, 100 μl/well (1 OPD tablet+12 ml citrate/phosphate buffer+5 μl 30% H2O2 per plate), for 30 minutes in the dark at room temperature. The reaction was stopped with 2N H2SO4 (100 μl/well), and the absorbance was measured at A490 X on a Victor^3 V 1420 multilabel counter (Perkin Elmer).

In another series the test system is HCV gT5a replicon. The series is described as follows: HCV replicon assay, gT5a. It counts as cell-based, Hepatitis C virus (HCV). How it is done: as §1, §2
The subject of a further series is HCV gT4a replicon. The series is described as follows: HCV replicon assay, gT4a. Type of series: cell-based, Hepatitis C virus (HCV). The protocol: as §1, §2
The nature of series [1]: Cytotoxicity, cell viability by ATPLite Kit. It counts as cell-based, human. Conditions: human, Huh7 cells (human hepatoma cell line), 10% FBS, maximal inhibition, read-out: Cytotox gT1b 10% FBS max. inh. The method, boiled down:
(§3)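 Huh7 cells seeded 18 h before compound addition, then exposed for 96 h at 37° C./5% CO2, triplicate dilutions. Viability read as ATP luminescence (ATPLite) after PBS wash and lysis; CC50 derived from the dilution series.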

Series [2] is described as follows: Bioavailability of new inhibitors in rats. Conditions: rat, in vivo.
In a further series the test system is HCV gT2a replicon. The series is described as follows: HCV replicon assay, gT2a. As to conditions: Huh7 replicon cells, mean. Type of series: cell-based, Hepatitis C virus (HCV). The protocol:
as §1, §2

Another series relates to HCV gT1b replicon. In words: HCV replicon assay, gT1b. Type of series: cell-based, Hepatitis C virus (HCV). As to conditions: Huh7 replicon cells, mean value.
For the next series, the system named is HCV gT1a replicon. In words: HCV replicon assay, gT1a. Type of series: cell-based, Hepatitis C virus (HCV). Conditions: Huh7 replicon cells, mean. How it is done: as §1, §2
Series [3] concerns human hepatoma cell line Huh7. In words: Cytotoxicity, cell viability by ATPLite Kit. It counts as cell-based. As to conditions: 96 hours, maximal inhibition. A digest of the protocol:
as §3

For series [4] the following is noted: known inhibitors, literature values; cited from earlier work.
Another series deals with HCV Genotype NS5A GT4a. Conditions: known inhibitors, literature values; cited from earlier work.
In a further series the test system is HCV Genotype NS5A GT1b. As to conditions: known inhibitors, literature values; cited from earlier work.
The next series concerns HCV Genotype NS5A GT1a. Conditions: known inhibitors, literature values; cited from earlier work.
A further series deals with HCV Genotype NS5A GT3a. As to conditions: known inhibitors, literature values, cited from earlier work.
In a further series the test system is HCV Genotype NS5A GT5a. As to conditions: known inhibitors, literature values; cited from earlier work.
The subject of another series is HCV Genotype NS5A GT2a. Conditions: known inhibitors, literature values, cited from earlier work.
The mark [5] stands for this setting: Hepatitis C virus, GT3A, Huh-7, Huh7 replicon cells.
Setting [6] is: Hepatitis C virus, GT5A, Huh-7, read-out: gT5a, EC50 (pM) mean.
Setting [7] is: Hepatitis C virus, GT4A, Huh-7, read-out: gT4a, EC50 (pM) mean.
The mark [8] stands for this setting: Hepatitis C virus, GT1B, Huh-7, 10% FBS, read-out: gT1b 10% FBS, EC50 (pM) mean.
Where [9] appears, read: Hepatitis C virus, GT1B, Huh-7, 40% NHS, read-out: gT1b 40% NHS, EC50 (pM) mean.

SMILES strings stand for the structures. Counter-ions that a name gives are not always drawn. Like-named read-outs stand apart in the source and are kept apart here.

For the molecule `COC(=O)N[C@H](C(=O)N1CCC[C@H]1c1ncc(-c2ccc(C#CC#Cc3cnc([C@@H]4CCCN4C(=O)[C@H](NC(=O)OC)c4ccccc4)[nH]3)c(-c3ccccc3)c2)[nH]1)C(C)C.Cl.Cl` [2(7)•2HCl, [(S)-1-((S)-2-{5-[6-(4-{2-[(S)-1-((R)-2-Methoxycarbonylamino-2-phenyl-acetyl)-pyrrolidin-2-yl]-3H-imidazol-4-yl}-buta-1,3-diynyl)-biphenyl-3-yl]-1H-imidazol-2-yl}-pyrrolidine-1-carbonyl)-2-methyl-propyl]-carbamic acid methyl ester dihydrochloride], the EC50 in the series with HCV gT3a replicon (setting [5]) came to 23 pM; with HCV gT5a replicon (setting [6]), 19.8 pM; in the series with HCV gT4a replicon (setting [7]) it was 8.5 pM; in the series on HCV gT2a replicon (Hepatitis C virus, GT2A, Huh-7), 5.9 pM; with HCV gT1b replicon (setting [8]), 1.92 pM; in the series with HCV gT1b replicon (setting [9]) it was 12.6 pM. In the series on HCV gT1a replicon (Hepatitis C virus, GT1A, Huh-7), the midpoint of the response, the EC50, lay at 22.5 pM. The inhibition at 96 h in [1] stood at 32%. The molecule further came in with a bioavailability in series [2] of 31%.

`COC(=O)N[C@H](C(=O)N1CCC[C@H]1c1ncc(-c2ccc(C#CC#Cc3cnc([C@@H]4CCCN4C(=O)[C@H](NC(=O)OC)c4ccccc4)[nH]3)c(-c3ccc(N(C)C)cc3)c2)[nH]1)C(C)C.Cl.Cl.Cl` [2(14)•2HCl, [(S)-1-((S)-2-{5-[4′-Dimethylamino-6-(4-{2-[(S)-1-((R)-2-methoxycarbonylamino-2-phenyl-acetyl)-pyrrolidin-2-yl]-3H-imidazol-4-yl}-buta-1,3-diynyl)-biphenyl-3-yl]-1H-imidazol-2-yl}-pyrrolidine-1-carbonyl)-2-methyl-propyl]-carbamic acid methyl ester troihydrochloride]: the EC50 was 38.5 pM with HCV gT3a replicon (Huh7 replicon cells); 52 pM in the series with HCV gT5a replicon (Huh7 replicon cells, mean, read-out: gT5a, EC50 (pM) mean); 10.8 pM with HCV gT4a replicon (Huh7 replicon cells, mean, read-out: gT4a, EC50 (pM) mean); 12.8 pM in the series with HCV gT2a replicon; 1.51 pM in the series on HCV gT1b replicon (10% FBS, read-out: gT1b 10% FBS, EC50 (pM) mean); 13 pM in the series on HCV gT1b replicon (40% NHS, read-out: gT1b 40% NHS, EC50 (pM) mean). In the series with HCV gT1a replicon, this molecule displayed an EC50 of 138 pM. Also, the “Cytotox gT1b 10% FBS max. inh.” value in [3] is given as 23%.

`COC(=O)N[C@H](C(=O)N1CCC[C@H]1c1ncc(-c2cc(C)c(-c3ccc(-c4cnc([C@@H]5CCCN5C(=O)[C@H](NC(=O)OC)c5ccccc5)[nH]4)cc3)c(-c3ccccc3)c2)[nH]1)C(C)C` [2(27)•2HCl, ((S)-1-{(S)-2-[5-(4-{2-[(S)-1-((R)-2-Methoxycarbonylamino-2-phenyl-acetyl)-pyrrolidin-2-yl]-3H-imidazol-4-yl}-6′-methyl-[1,1′;2′,1″]terphenyl-4′-yl)-1H-imidazol-2-yl]-pyrrolidine-1-carbonyl}-2-methyl-propyl)-carbamic acid methyl ester dihydrochloride]: the EC50 in the series with HCV gT3a replicon (setting [5]) was 25.2 pM; with HCV gT5a replicon (setting [6]), 25.8 pM; in the series with HCV gT4a replicon (setting [7]), 12.3 pM; in the series on HCV gT2a replicon (Hepatitis C virus, GT2A, Huh-7) it was 7.9 pM; in the series with HCV gT1b replicon (setting [8]) it was 5.1 pM; in the series on HCV gT1b replicon (setting [9]), 14.5 pM. Besides, in the series with HCV gT1a replicon (Hepatitis C virus, GT1A, Huh-7), a half-maximal response (EC50) required 203 pM. Moreover, the inhibition at 96 h in series [1] is 31%.

For `COC(=O)N[C@H](C(=O)N1CCC[C@H]1c1ncc(C#CC#Cc2ccc(-c3cnc([C@@H]4CCCN4C(=O)[C@@H](NC(=O)OC)C(C)C)[nH]3)cc2)[nH]1)C(C)C` [AV-4025, Hepavivir], the “Bioavailability in rat, F, %” value in series [4] is 65.0%. Moreover, the EC50 was 12 pM in the series on HCV Genotype NS5A GT4a; 3.4 pM in the series on HCV Genotype NS5A GT1b; 59 pM in the series on HCV Genotype NS5A GT1a; 172 pM in the series with HCV Genotype NS5A GT5a; 51 pM with HCV Genotype NS5A GT2a. In addition, the “EC50, pM HCV Genotype NS5A GT3a” value in the series on HCV Genotype NS5A GT3a is “insufficient activities”. The “EC50, pM HCV Genotype NS5A GT5a” value with HCV Genotype NS5A GT5a is “insufficient activities”.

For `COC(=O)N[C@H](C(=O)N1CC2(CC2)C[C@H]1c1nc(-c2ccc3c(c2)C(F)(F)c2cc(-c4ccc5[nH]c([C@@H]6[C@H]7CC[C@H](C7)N6C(=O)[C@@H](NC(=O)OC)C(C)C)nc5c4)ccc2-3)c[nH]1)C(C)C` [Ledipasvir], the EC50 in the series on HCV Genotype NS5A GT4a was 7 pM; with HCV Genotype NS5A GT1b it was 5 pM; in the series on HCV Genotype NS5A GT1a, 31 pM; with HCV Genotype NS5A GT3a it was 10.1 pM; in the series on HCV Genotype NS5A GT3a (listed as Ledipasvir (GS-5885)), 10100 pM; with HCV Genotype NS5A GT2a it was 20.8 pM. For the same molecule, the EC50 with HCV Genotype NS5A GT2a (listed as Ledipasvir (GS-5885)) was 20800 pM. Also, in the series on HCV Genotype NS5A GT3a, the “EC50, pM HCV Genotype NS5A GT3a” value is “insufficient activities”. The “EC50, pM HCV Genotype NS5A GT5a” value with HCV Genotype NS5A GT5a is reported as “insufficient activities”.

Consider `COC(=O)N[C@H](C(=O)N1CCC[C@H]1C(=O)Nc1ccc([C@@H]2CC[C@@H](c3ccc(NC(=O)[C@@H]4CCCN4C(=O)[C@@H](NC(=O)OC)C(C)C)cc3)N2c2ccc(C(C)(C)C)cc2)cc1)C(C)C` [Ombitasvir], for which the EC50 is 1.7 pM in the series on HCV Genotype NS5A GT4a; 5 pM in the series on HCV Genotype NS5A GT1b; 14.1 pM with HCV Genotype NS5A GT1a; 19.3 pM in the series with HCV Genotype NS5A GT3a; 4.3 pM with HCV Genotype NS5A GT5a; 12.4 pM in the series with HCV Genotype NS5A GT2a.
